The values below are quoted from earlier work in patent publication US20120122825A1, “USE OF PICOPLATIN TO TREAT PROSTATE CANCER” (Poniard Pharmaceuticals, Inc., priority 2009, published 2012).

The test system of series [1] is patients with solid tumors. To be noted: picoplatin and docetaxel combination, 33 patients with solid tumors.
Series [2] relates to men with HRPC.
The mark [3] stands for this setting: 30 mg/m^2 docetaxel weekly for 5 of 6 weeks plus 5 mg prednisone twice daily.

As to `CC(=O)O[C@@]12CO[C@@H]1C[C@H](O)[C@@]1(C)C(=O)[C@H](O)C3=C(C)[C@@H](OC(=O)[C@H](O)[C@@H](NC(=O)OC(C)(C)C)c4ccccc4)C[C@@](O)([C@@H](OC(=O)c4ccccc4)[C@H]21)C3(C)C` [docetaxel], in series [1], the “dose limiting toxicity (DLT) dose” value is recorded as 75 mg/m^2 and the “recommended Phase II dose (PTD)” value is given as 75 mg/m^2. In series [2] (setting [3]), the “>50% reductions in PSA, share of men” value is reported as 48% and the Overall survival is reported as 17.4 months. Also, in series [2] (docetaxel alone, comparison value), the PSA response expected is 45%.
